{"source": "patent US8263649B2", "about": "“Benzofuran type derivatives, a composition comprising the same for treating or preventing cognitive dysfunction and the use thereof” (Medifron DBT Co., Ltd., priority 2006, dated 2012)", "key": {"[1]": {"system": "HT22 mouse neuronal cell line treated with aggregated beta amyloid 25-35", "assay": "Inhibition test of beta amyloid toxicity (MTT)", "format": "cell-based", "conditions": "HT22 cells, 25 μm aggregated beta amyloid 25-35, 18 hours", "description": "To determine the inhibitory activity of the compounds prepared in Examples on beta-amyloid toxicity, following test was performed according to the procedure disclosed in the literature (Gillardon, F. et al., Brain Research, 706(1), pp. 169-172, 1996).\nHT22 mouse neuronal cell line was incubated in DMEM (Dulbecco's Modified Eagle's Medium, Gibco-BRL) medium supplemented with 10% FBS (Fetal Bovine Serum, Hyclone) and 1% penicillin/streptomycin (Sigma Co.). Prior to test, HT22 cell was incubated on 96 well plates with a density of 5×10^3 cell/well and further incubated in serum free DMEM medium for 1 hour before the treatment of test sample. Various concentration of compounds prepared in Examples used as a test sample was added thereto and incubated for 1 hour. Aggregated beta amyloid 25-35 (US peptide) was treated thereto to the concentration of 25 μm and incubated for 18 hours to induce cell necrosis. 5 mg/ml of MTT (3-(4,5-dimethyl-2-thiazolyl)-2,5-diphenyl-2H-tetrazolium bromide) solution was added each well with 15 μl/well and the well was incubated for 4 hours. Dissolving buffer solution (10% SDS, 50% dimethyl formamide, pH 4.7) was added to each well with 100 μl/well and reacted for overnight. 18 hours after the reaction, the absorbance of solution was determined by microplate reader (SAFIRE, TECAN) at 570 nm/630 nm wavelength (Gillardon, F. et al., Brain Research, 706(1) pp 169-172, 1996)."}, "[2]": {"system": "ICR mouse administrated aggregated beta amyloid 1-42", "assay": "AD acute model experiment - Y maze test", "format": "in vivo", "description": "(§1) For passive avoidance test, male ICR mouse weighing 25 g purchased from Samtaco Co. was bred with five mice per cage and the cage was kept with following condition maintaining the temperature of 22±2° C. and the relative humidity of […] under the regularly controlled light/dark condition with an interval of 12 hours.\n(§2) Synthetic beta amyloid 1-42 (BACHEM) was dissolved in DMSO in order to be 250 μm solution and diluted with PBS to […] and aggregated at 37° C. for four days (Passive Avoidance test) or six days (Y maze test).\nAggregated beta amyloid 1-42 was administrated into the mice according to the procedure disclosed in the literature (Lausen & Belknap, J. Pharmacol. Methods, 16 pp 355-357, 1986). […]\nThe Y-maze test was performed two days after the administration of beta-amyloid. […] Thereafter, the entering order of the mice into the pathway was observed and the entering time was determined when four limbs of the mice were entered within the pathway. To determine the spatial memory, the percentage of spontaneous alteration behavior was calculated by applying the measured alteration frequency to following empirical formula 1 and the frequency of actual alteration behavior was assigned once at the time that the mice had entered the three pathways continuously. […]"}, "[3]": {"system": "ICR mouse administrated aggregated beta amyloid 1-42", "assay": "AD acute model experiment - passive avoidance test", "format": "in vivo", "description": "as §1, §2\nAggregated beta amyloid 1-42 was administrated into the mice according to the procedure disclosed in the literature (Lausen & Belknap, J. Pharmacol. Methods, 16 pp 355-357, 1986).\n[…] beta amyloid 1-42 was administrated into the 2.4 mm depth of bregma region with 50 μl of Hamilton micro-syringe equipped with 26-gauge needle. The behavior tests were divided into Y maze test and PA (passive avoidance) test after the beta amyloid administration. […]\nDuring the first acquisition trial, each mouse was placed in the lighted compartment; as soon as they entered the dark compartment, the door was closed, and they received an electric shock through the grid floor (0.6 Ma, 3 s). […] 24 hours after the training trial, the mice were again placed in the lighted compartment and the time until they re-entered the dark compartment was measured (step-through latency). […]"}, "[4]": {"system": "beta amyloid plaque", "assay": "Congo Red staining of beta amyloid plaque in brain sections of transgenic mice", "format": "in vivo, mouse", "conditions": "FIG. 14"}}, "data": [{"smiles": "COCCCc1ccc2oc(-c3ccc(OC)c(OC)c3)cc2c1", "note": "[Compound 18b, 2-(3,4-dimethoxy-phenyl)-5-(3-methoxy-propyl)-benzofuran]", "values": [{"measurement": "inhibition effect on beta-amyloid toxicity", "setting": "[1]", "result": "potent inhibition effect"}, {"measurement": "recovering effect on memory learning capacity damaged by beta-amyloid (Y maze, spontaneous alteration)", "setting": "[2]; mice, oral, 50, 100 and 200 mg/kg, FIG. 2, FIG. 3", "result": "potent recovering effect on memory learning capacity damaged by beta-amyloid in a dose dependent manner"}, {"measurement": "effect on the memory learning capacity (Y maze), best dose group", "setting": "[2]; treatment group with more than 100 mg/kg, FIG. 3", "result": "most excellent effect"}, {"measurement": "recovering effect on memory learning damaged by beta-amyloid (passive avoidance, step-through latency)", "setting": "[3]; mice, oral, three days, FIG. 4", "result": "potent recovering effect"}, {"measurement": "effect on the memory learning capacity (passive avoidance), best dose group", "setting": "[3]; treatment group with more than 100 mg/kg, FIG. 5", "result": "most excellent effect"}, {"measurement": "numbers, size, and area of plaque in brain", "setting": "[4]", "result": "significantly reduced"}]}]}
